Data as given in ChEMBL document CHEMBL1268982, “Design, synthesis, and structure-activity relationship studies of N-arylsulfonyl morpholines as γ-secretase inhibitors” (Bioorg Med Chem Lett, 2010).
Each block holds one compound with its values, some of them ahead of it.

Legend:
[1] = Inhibition of gamma-secretase-mediated amyloid beta-40 production
[2] = AUC (0 to 6 hrs) in rat at 10 mg/kg, po; type: ADME, organism-based; parameters: time < 6 hr, dose 10 mg/kg, route oral; details: plasma
Cytochrome P450 3A4 = Cytochrome P450 3A4 (Homo sapiens, UniProt P08684); assay: Inhibition of CYP3A4 after 30 mins; type: ADME
Sequence of Cytochrome P450 3A4 (P08684 whole entry): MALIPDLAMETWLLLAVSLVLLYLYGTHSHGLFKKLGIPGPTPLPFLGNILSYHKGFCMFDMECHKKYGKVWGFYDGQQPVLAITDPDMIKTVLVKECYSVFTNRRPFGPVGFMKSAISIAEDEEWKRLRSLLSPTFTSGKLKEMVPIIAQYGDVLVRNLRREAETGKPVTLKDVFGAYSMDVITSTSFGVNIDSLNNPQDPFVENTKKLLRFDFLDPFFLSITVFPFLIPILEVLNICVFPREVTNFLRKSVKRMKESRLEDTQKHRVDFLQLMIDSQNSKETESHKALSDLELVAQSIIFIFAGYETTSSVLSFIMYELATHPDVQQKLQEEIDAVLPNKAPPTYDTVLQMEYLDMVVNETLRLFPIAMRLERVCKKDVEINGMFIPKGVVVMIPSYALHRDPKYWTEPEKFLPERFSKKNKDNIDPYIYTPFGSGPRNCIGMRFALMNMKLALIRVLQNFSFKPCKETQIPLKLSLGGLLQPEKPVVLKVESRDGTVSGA

- IC50 [1]: 0.0065 µM
- IC50 (Cytochrome P450 3A4): 13.8 µM
SMILES: CC(C)[C@@H]1COC[C@H](C2(OC(=O)N3CCC(CO)CC3)CC2)N1S(=O)(=O)c1ccc(Cl)cc1

- IC50 [1]: 0.131 µM
- IC50 (Cytochrome P450 3A4): 5.5 µM
SMILES: CC1([C@@H]2COC[C@H](COC(=O)N3CCC(CO)CC3)N2S(=O)(=O)c2ccc(Cl)cc2)CC1

- IC50 [1]: 0.0204 µM
- IC50 (Cytochrome P450 3A4): 1.5 µM
SMILES: CC1([C@@H]2COC[C@H](COC(=O)N3CCC(N4CCCCC4)CC3)N2S(=O)(=O)c2ccc(Cl)cc2)CC1

- IC50 [1]: 0.0031 µM
- AUC(0-t) at 6 h [2]: 1.34 µM·h
- IC50 (Cytochrome P450 3A4): 11.3 µM
SMILES: O=C(OC1([C@H]2COC[C@@H](CC3CC3)N2S(=O)(=O)c2ccc(Cl)cc2)CC1)N1CCC2(CCN2)CC1

- IC50 [1]: 0.0057 µM
- AUC(0-t) at 6 h [2]: 1.02 µM·h
- IC50 (Cytochrome P450 3A4): 1.4 µM
SMILES: CN1CCN(C(=O)OC2([C@H]3COC[C@@H](CC4CC4)N3S(=O)(=O)c3ccc(Cl)cc3)CC2)CC1=O

- IC50 [1]: 0.0276 µM
- AUC(0-t) at 6 h [2]: 0.077 µM·h
- IC50 (Cytochrome P450 3A4): > 30 µM
SMILES: CC(C)(CO)N1CCN(C(=O)OC2([C@H]3COC[C@@H](CC4CC4)N3S(=O)(=O)c3ccc(Cl)cc3)CC2)CC1

- IC50 [1]: 0.108 µM
- IC50 (Cytochrome P450 3A4): 7.1 µM
SMILES: CC(C)(C)[C@@H]1COC[C@H](COC(=O)N2CCC(CO)CC2)N1S(=O)(=O)c1ccc(Cl)cc1

- IC50 [1]: 0.0393 µM
- IC50 (Cytochrome P450 3A4): 0.5 µM
SMILES: CC1([C@@H]2COC[C@H](COC(=O)N3CCN(C(C)(C)CO)CC3)N2S(=O)(=O)c2ccc(Cl)cc2)CC1

The next lines start with the compound.

SMILES: CN1CCC12CCN(C(=O)OC1([C@H]3COC[C@@H](CC4CC4)N3S(=O)(=O)c3ccc(Cl)cc3)CC1)CC2
- IC50 [1]: 0.0026 µM
- AUC(0-t) at 6 h [2]: 0.894 µM·h
- IC50 (Cytochrome P450 3A4): 30 µM

SMILES: CC[C@H]1CN(C(C)=O)[C@H](C)CN1C(=O)OC1([C@H]2COC[C@@H](CC3CC3)N2S(=O)(=O)c2ccc(Cl)cc2)CC1
- IC50 [1]: 0.0293 µM
- IC50 (Cytochrome P450 3A4): > 30 µM

SMILES: CCNC(=O)N1C2CCC1CN(C(=O)OC1([C@H]3COC[C@@H](CC4CC4)N3S(=O)(=O)c3ccc(Cl)cc3)CC1)C2
- IC50 [1]: 0.0055 µM
- AUC(0-t) at 6 h [2]: 0.06 µM·h
- IC50 (Cytochrome P450 3A4): > 30 µM

SMILES: CC(C)[C@@H]1COC[C@H](C2(OC(=O)N3CC4CCC(C3)N4)CC2)N1S(=O)(=O)c1ccc(Cl)cc1
- IC50 [1]: 0.002 µM
- AUC(0-t) at 6 h [2]: 4.97 µM·h
- IC50 (Cytochrome P450 3A4): 0.5 µM

SMILES: CC(=O)N1C2CCC1CN(C(=O)OC1([C@H]3COC[C@@H](CC4CC4)N3S(=O)(=O)c3ccc(Cl)cc3)CC1)C2
- IC50 [1]: 0.0044 µM
- AUC(0-t) at 6 h [2]: 0.013 µM·h
- IC50 (Cytochrome P450 3A4): > 30 µM

SMILES: CC(C)[C@@H]1COC[C@H](C2(OC(=O)N3CC4CNCC4C3)CC2)N1S(=O)(=O)c1ccc(Cl)cc1 (stereo partly specified)
- IC50 [1]: 0.0093 µM
- AUC(0-t) at 6 h [2]: 1.12 µM·h
- IC50 (Cytochrome P450 3A4): 6.4 µM

SMILES: O=C(OC1([C@H]2COC[C@@H](CC3CC3)N2S(=O)(=O)c2ccc(Cl)cc2)CC1)N1CC2CCC(C1)N2CCO
- IC50 [1]: 0.0009 µM
- AUC(0-t) at 6 h [2]: 1.28 µM·h
- IC50 (Cytochrome P450 3A4): 2.3 µM

SMILES: CC(C)[C@@H]1COC[C@H](C2(OC(=O)N3CCNCC3)CC2)N1S(=O)(=O)c1ccc(Cl)cc1
- IC50 [1]: 0.0145 µM
- AUC(0-t) at 6 h [2]: 3.93 µM·h
- IC50 (Cytochrome P450 3A4): 0.3 µM

SMILES: O=C(OC1([C@H]2COC[C@@H](CC3CC3)N2S(=O)(=O)c2ccc(Cl)cc2)CC1)N1CC2CC1CN2CCO (stereo partly specified)
- IC50 [1]: 0.0036 µM
- AUC(0-t) at 6 h [2]: 1.35 µM·h
- IC50 (Cytochrome P450 3A4): 3.2 µM

SMILES: CC(C)[C@@H]1COC[C@H](C2(OC(=O)N3CC[C@@H](O)C3)CC2)N1S(=O)(=O)c1ccc(Cl)cc1
- IC50 [1]: 0.0189 µM
- AUC(0-t) at 6 h [2]: 0.036 µM·h
- IC50 (Cytochrome P450 3A4): 13.6 µM

SMILES: CC(C)(C)[C@@H]1COC[C@H](COC(=O)N2CCN(C(C)(C)CO)CC2)N1S(=O)(=O)c1ccc(Cl)cc1
- IC50 [1]: 0.0347 µM
- IC50 (Cytochrome P450 3A4): 23.8 µM

SMILES: O=C1CC2(CCN(C(=O)OC3([C@H]4COC[C@@H](CC5CC5)N4S(=O)(=O)c4ccc(Cl)cc4)CC3)CC2)N1
- IC50 [1]: 0.0074 µM
- AUC(0-t) at 6 h [2]: 0.037 µM·h
- IC50 (Cytochrome P450 3A4): > 30 µM

SMILES: CC(C)[C@@H]1COC[C@H](C2(OC(=O)N3CC[C@H](O)C3)CC2)N1S(=O)(=O)c1ccc(Cl)cc1
- IC50 [1]: 0.017 µM
- IC50 (Cytochrome P450 3A4): 30 µM

SMILES: C[C@@H]1CN(C(=O)OC2([C@H]3COC[C@@H](CC4CC4)N3S(=O)(=O)c3ccc(Cl)cc3)CC2)C[C@H](C)N1CCO
- IC50 [1]: 0.0116 µM
- AUC(0-t) at 6 h [2]: 1.23 µM·h
- IC50 (Cytochrome P450 3A4): 2 µM

SMILES: O=C(OC1([C@H]2COC[C@@H](CC3CC3)N2S(=O)(=O)c2ccc(Cl)cc2)CC1)N1CC2CCC(C1)N2
- IC50 [1]: 0.0008 µM
- AUC(0-t) at 6 h [2]: 4.58 µM·h
- IC50 (Cytochrome P450 3A4): 0.8 µM
